Patent publication US20240245709A1, “[…] USE IN TREATMENT OF E[…] EPILEPTICUS” (MARINUS PHARMACEUTICALS, INC., priority 2021, published 2024)

What was measured:
[1] = human plasma, oral administration; cited from earlier work
[2] = Clinical safety in the ganaxolone development program (placebo-controlled Phase 1, 2 and 3 studies); type: in vivo, human
Source text: In the completed placebo-controlled Phase 1, 2, and 3 studies, 0.32% of subjects who received ganaxolone and 0.46% of subjects who received placebo developed elevated LFTs during the study (>3×ULN AST and/or ALT). A subject participating in the ganaxolone paediatric epilepsy study developed liver failure, which was not considered to be related to ganaxolone. The subject was diagnosed with short bowel syndrome, liver steatosis and IgG-cholangitis, which were considered to be the causal factors for the subject's liver failure. There have been no other cases of Hy's Law or liver failure in the ganaxolone development program. […] After cessation of the dosing, plasma ganaxolone levels are expected to drop rapidly, but it is possible that low sub-therapeutic levels persist for several days as ganaxolone is slowly released from tissues.
(§1) Ganaxolone has been administered to infants with severe forms of epilepsy as early as 4 months of age. In clinical trials involving administration of ganaxolone over several weeks, the study drug has been tapered off over a 1 to 2-week period.

progesterone receptor = molecular target: T1, progesterone receptor (Homo sapiens, UniProt P06401); assay: Progesterone receptor activation; settings: directly or indirectly, via metabolic conversion
T1 sequence (P06401 1-933): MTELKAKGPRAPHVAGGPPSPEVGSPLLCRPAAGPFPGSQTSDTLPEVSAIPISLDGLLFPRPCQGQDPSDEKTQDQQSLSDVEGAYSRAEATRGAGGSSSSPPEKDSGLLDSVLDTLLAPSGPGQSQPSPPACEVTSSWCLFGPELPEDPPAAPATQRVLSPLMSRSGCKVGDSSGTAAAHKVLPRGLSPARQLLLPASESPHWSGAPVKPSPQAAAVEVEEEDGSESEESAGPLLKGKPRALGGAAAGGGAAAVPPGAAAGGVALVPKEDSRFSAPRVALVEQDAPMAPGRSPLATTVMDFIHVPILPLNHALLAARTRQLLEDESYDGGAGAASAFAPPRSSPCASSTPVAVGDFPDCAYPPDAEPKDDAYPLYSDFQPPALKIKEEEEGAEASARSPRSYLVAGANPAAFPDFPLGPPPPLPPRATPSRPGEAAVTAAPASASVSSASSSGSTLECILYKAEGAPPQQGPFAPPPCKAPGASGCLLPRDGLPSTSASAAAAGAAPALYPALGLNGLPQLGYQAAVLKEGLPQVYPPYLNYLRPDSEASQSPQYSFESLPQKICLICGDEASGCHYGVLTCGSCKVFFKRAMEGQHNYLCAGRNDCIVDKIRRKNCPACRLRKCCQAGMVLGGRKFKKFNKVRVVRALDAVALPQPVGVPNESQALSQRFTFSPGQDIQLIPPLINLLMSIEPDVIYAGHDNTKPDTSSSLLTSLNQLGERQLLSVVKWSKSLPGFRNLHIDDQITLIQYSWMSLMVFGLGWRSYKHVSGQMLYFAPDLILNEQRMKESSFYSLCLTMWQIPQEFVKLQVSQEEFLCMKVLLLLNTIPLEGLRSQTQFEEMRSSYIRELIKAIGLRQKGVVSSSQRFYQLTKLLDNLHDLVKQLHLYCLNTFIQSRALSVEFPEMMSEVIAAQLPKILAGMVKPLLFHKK
Source text: Ganaxolone (3α-hydroxy-3β-methyl-5α-pregnan-20-one) is a 3β-methylated synthetic analogue of the endogenous neurosteroid allopregnanolone with similar biological activity (Carter et al., (1997), The Journal of Pharmacology and Experimental Therapeutics, 280:1284-1295), but it is designed to not activate nuclear (classical) progesterone receptors.

CYP3A4/5 = assay: Metabolism and effect of strong CYP inducers on ganaxolone clearance (in vitro data and human PK data)
[3] = Human plasma pharmacokinetics following oral administration; type: in vivo
Method: (§2) Ganaxolone is insoluble in water. […] 3.5 mg/mL, and 3.1 mg/mL, respectively. Ganaxolone has a relatively long half-life—approximately 20 hours in human plasma following oral administration (Nohria, V. and Giller, E., Neurotherapeutics, (2007) 4(1): 102-105). Furthermore, ganaxolone has a short Tmax, which means that therapeutic blood levels are reached quickly.

[4] = Solubility of ganaxolone in solvents; type: physicochemical
Method: as §2
Ganaxolone formulations suitable for parenteral administration in the methods of the present invention may comprise physiologically acceptable sterile aqueous or non-aqueous solutions, dispersions, suspensions or emulsions, and sterile powders for reconstitution into sterile injectable solutions or dispersions. Examples of suitable aqueous and non-aqueous carriers, diluents, solvents, or vehicles including water, ethanol, polyols (propylene glycol, polyethylene-glycol, glycerol, cremophor and the like), suitable mixtures thereof, vegetable oils (such as olive oil) and injectable organic esters such as ethyl oleate. Additionally, ganaxolone can be dissolved at concentrations of >1 mg/ml using water soluble beta cyclodextrins (e.g. beta-sulfobutyl-cyclodextrin and 2-hydroxypropylbetacyclodextrin). A particularly suitable cyclodextrin is a substituted-β-cyclodextrin is Captisol®. […]

[5] = Toxicology studies in animals focusing on prenatal and neonatal development; type: in vivo
Source text: as §1

For `CC(=O)[C@H]1CC[C@H]2[C@@H]3CC[C@H]4C[C@](C)(O)CC[C@]4(C)[C@H]3CC[C@]12C` [ganaxolone, 3α-hydroxy-3β-methyl-5α-pregnan-20-one], the half-life [1] is listed as “approximately 20 hours”, the “withdrawal symptoms after cessation” value ([2]; clinical trials, several weeks of administration, tapered off over 1 to 2 weeks) is listed as “no reports of withdrawal symptoms” and the “subjects who developed elevated LFTs (>3×ULN AST and/or ALT)” value ([2]; completed placebo-controlled Phase 1, 2 and 3 studies) is listed as 0.32%. The “trends in ECG intervals, vital signs, physical or neurological examinations” value ([2]; development program overall) was “no clinically significant trends”, the “excretion to breast milk” value ([2]; ganaxolone and its metabolites) was “excreted to breast milk” and the “plasma concentration that can induce anesthesia” value ([2]; subject, intravenous administration) was “above 1000 ng/ml”. For the same molecule, the “activation of the progesterone receptor” value (progesterone receptor) was “does not activate”, the metabolizing enzyme (CYP3A4/5; human, in vivo) was “metabolized by CYP3A4/5” and the “lowering in overall ganaxolone levels and exposure” value (CYP3A4/5; subjects taking strong CYP inducers (carbamazepine and phenytoin)) was roughly 45%. For the same molecule, the Tmax ([3]; human, in vivo) was “short”, the oral bioavailability ([3]; in contrast to allopregnanolone) was “orally bioavailable” and the solubility ([4]; aqueous with cosolvent or surfactant or cyclodextrin, beta-sulfobutyl-cyclodextrin and 2-hydroxypropylbetacyclodextrin, read-out: concentration dissolved using water soluble beta cyclodextrins) was greater than 1000 µg/mL. For the same molecule, the solubility in water ([4]; water) was “insoluble” and the “prenatal and neonatal developmental toxicity” value [5] was “have not demonstrated toxicities”.
